Among the data in patent US20230301981A1, “TLR7/8 ANTAGONISTS AND USES THEREOF” (Merck Patent GmbH, priority 2020, published 2023) are IC50 values, retold here.

The target in one test is T1, TLR8 (Homo sapiens, UniProt Q9NR97).
T1 construct: Human whole blood from healthy donors was drawn into EDTA Vacutainer tubes; endogenous in cells; host or cells: human whole blood (healthy donors)
T1 sequence (Q9NR97 27-1041): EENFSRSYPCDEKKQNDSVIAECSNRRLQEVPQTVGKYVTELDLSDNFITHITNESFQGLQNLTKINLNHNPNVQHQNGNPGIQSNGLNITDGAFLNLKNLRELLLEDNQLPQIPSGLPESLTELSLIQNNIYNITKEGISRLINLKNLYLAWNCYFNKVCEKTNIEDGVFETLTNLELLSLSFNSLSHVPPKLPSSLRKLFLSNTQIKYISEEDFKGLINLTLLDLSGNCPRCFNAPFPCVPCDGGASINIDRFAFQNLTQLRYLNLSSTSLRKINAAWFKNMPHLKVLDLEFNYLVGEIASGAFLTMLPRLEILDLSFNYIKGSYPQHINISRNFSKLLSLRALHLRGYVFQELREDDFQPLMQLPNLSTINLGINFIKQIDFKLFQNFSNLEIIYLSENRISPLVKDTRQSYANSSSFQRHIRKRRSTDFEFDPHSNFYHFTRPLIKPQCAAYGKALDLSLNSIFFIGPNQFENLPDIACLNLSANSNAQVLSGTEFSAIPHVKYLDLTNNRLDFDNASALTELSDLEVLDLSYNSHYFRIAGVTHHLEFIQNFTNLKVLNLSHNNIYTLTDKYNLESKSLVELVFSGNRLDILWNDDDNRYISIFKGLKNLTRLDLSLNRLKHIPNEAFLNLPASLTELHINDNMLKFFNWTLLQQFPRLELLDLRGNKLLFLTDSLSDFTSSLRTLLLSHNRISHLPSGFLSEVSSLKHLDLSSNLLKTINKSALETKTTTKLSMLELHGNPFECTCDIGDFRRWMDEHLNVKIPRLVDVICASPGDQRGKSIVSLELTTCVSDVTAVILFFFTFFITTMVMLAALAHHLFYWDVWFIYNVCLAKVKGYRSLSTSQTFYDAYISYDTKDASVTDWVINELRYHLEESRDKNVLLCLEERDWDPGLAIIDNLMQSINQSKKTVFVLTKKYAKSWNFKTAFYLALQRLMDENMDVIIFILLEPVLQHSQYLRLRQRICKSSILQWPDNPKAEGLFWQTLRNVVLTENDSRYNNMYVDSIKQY
In words: Human whole blood assay, TLR8-specific agonist stimulation, IL-6 by AlphaLISA. Format: cell-based. As to conditions: TLR8-specific agonist 0.5 µM, IL-6 readout, read-out: IC50 TLR8 (IL6 READOUT) HUMAN WHOLE BLOOD (N=2). How it is done:
(§1) Human whole blood from healthy donors was drawn into EDTA Vacutainer tubes and the experiment started within 2 hr of draw. Four parts blood was diluted with 1 part PBS. 10 mM compounds stock solutions were serially diluted 1:3 eleven times in DMSO. Each serial dilution was further diluted by transferring 3 µl to 100 µl RPMI. For the stimulation only and no stimulation controls, 3 µl 100% DMSO was transferred to 100 µl RPMI. Then, 5 µl of each of these dilutions were transferred to 96-well tissue culture grade U-bottom plate in triplicate for each ligand and each donor. Final inhibitor concentrations were 10, 3.3, 1.1, 0.37, 0.12, 0.04, 0.014, 0.0046, 0.0015, 0.00051, 0.00017, 0.00006 µM. No inhibitor (stimulation only) controls were included in triplicate for each donor. Diluted blood was dispensed on top of inhibitor dilutions at 150 µl/well. Plates were incubated at 37° C. 5% CO2 for 30 min. For TLR7 stimulation, 10 mM stock of a TLR7-specific small molecule agonist in DMSO was diluted to 90 µM in RPMI and 5 µl were added to each inhibitor dilution for each donor. Final concentration was 3 µM. For TLR8 stimulation, 10 mM stock of a TLR8-specific small molecule agonist in DMSO was diluted to 15 µM in RPMI and 5 µl were added to each inhibitor dilution for each donor. Final concentration was 0.5 µM. No stimulation controls were included in triplicate for each donor. Plates were incubated at 37° C. 5% CO2 overnight. Next day, plasma was collected and IL-6 was measured by AlphaLISA (PerkinElmer AL223 according to manufacturer’s protocol.
For orientation: Alpha assays give light when donor and acceptor beads are brought close together.

The target of another test is T2, TLR7 (Homo sapiens, UniProt Q9NYK1).
T2 sequence (Q9NYK1 27-1049): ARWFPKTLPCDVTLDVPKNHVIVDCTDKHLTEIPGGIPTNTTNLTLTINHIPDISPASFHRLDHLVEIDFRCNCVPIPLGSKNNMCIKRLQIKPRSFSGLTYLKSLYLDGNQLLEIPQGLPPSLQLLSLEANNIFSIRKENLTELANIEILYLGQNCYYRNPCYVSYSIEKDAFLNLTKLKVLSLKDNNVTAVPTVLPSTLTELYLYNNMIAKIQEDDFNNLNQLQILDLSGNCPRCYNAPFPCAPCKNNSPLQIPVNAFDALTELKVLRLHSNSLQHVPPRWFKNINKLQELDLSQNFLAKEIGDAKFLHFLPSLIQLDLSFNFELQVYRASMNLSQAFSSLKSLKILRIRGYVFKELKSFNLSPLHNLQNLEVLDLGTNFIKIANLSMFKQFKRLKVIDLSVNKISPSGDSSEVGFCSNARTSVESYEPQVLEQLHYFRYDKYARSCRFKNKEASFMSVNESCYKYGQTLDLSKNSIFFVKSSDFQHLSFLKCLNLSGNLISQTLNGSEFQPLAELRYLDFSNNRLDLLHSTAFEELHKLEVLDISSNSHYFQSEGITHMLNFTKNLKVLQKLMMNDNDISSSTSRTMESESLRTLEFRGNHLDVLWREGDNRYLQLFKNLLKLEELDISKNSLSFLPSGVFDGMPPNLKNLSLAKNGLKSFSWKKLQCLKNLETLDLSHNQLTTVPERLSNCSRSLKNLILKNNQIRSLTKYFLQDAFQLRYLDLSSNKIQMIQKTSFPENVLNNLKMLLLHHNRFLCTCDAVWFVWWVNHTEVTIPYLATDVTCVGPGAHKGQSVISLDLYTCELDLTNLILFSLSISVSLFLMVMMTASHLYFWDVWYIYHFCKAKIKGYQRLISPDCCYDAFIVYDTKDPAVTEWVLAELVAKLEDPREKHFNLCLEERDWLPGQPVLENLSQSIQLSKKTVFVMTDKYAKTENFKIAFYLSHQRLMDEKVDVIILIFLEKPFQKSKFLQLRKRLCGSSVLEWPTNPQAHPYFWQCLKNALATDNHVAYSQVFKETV
In words: Human whole blood assay, TLR7-specific agonist stimulation, IL-6 by AlphaLISA. In kind it is cell-based. Also noted: Human whole blood from healthy donors was drawn into EDTA Vacutainer tubes; endogenous in cells; host or cells: human whole blood (healthy donors). As to conditions: TLR7-specific agonist 3 µM, IL-6 readout, read-out: IC50 TLR7 (IL6 READOUT) HUMAN WHOLE BLOOD (N=2). How it is done:
as §1

For the compound `COc1ccc2nc3cc(Cl)ccc3c(Nc3cc(CN4CCCC4)c(O)c(CN4CCCC4)c3)c2n1` [Compound 1, Pyronaridine], the results for the IC50 on TLR8 and on TLR7 were 610 nM and 210 nM, respectively.
The corresponding values for `CCN(CCO)CCCC(C)Nc1ccnc2cc(Cl)ccc12` (stereo not shown) [HYDROXY-CHLOROQUINE HCQ, hydroxychloroquine] are 1240 nM and 960 nM.

The IC50 is the point on the concentration scale where inhibition reaches its midpoint.
